Assay results taken from article PMC5983452 (PLoS ONE, 2018).
pIC50: −log10 of the molar value. Where a name gives a salt, the structure may show the parent alone. Read-outs that look alike come from different tables or passages of the source.

Test system: panel of 240 cancer cell lines
Experiment: Proliferation in a broad panel of 240 cancer cell lines, 2D culture (Eurofins Panlabs Oncopanel)
Format: cell-based
Method: Cell lines used in these experiments were obtained from the following sources and were cultured according to conditions specified by the respective cell banks. […] The cell lines listed above were tested for mycoplasma and were negative. Cells were authenticated by STR method or vendor protocols. All 313 cell lines in the CRIPSR pooled screen were purchased from commercial vendors and were STR authenticated and mycoplasma negative. A broad panel of cancer cell lines was screened in the Eurofins Oncopanel. All cells in this panel were mycoplasma negative and STR verified.

Measured: pIC50

NC1CCC(S(=O)(=O)N2C3CCC2CC(NC(=O)c2cc(C4CC4)on2)C3)CC1 [EPZ028862, N-((1R,3R,5S)-8-((1r,4R)-4-aminocyclohexylsulfonyl)-8-aza-bicyclo[3.2.1]octan-3-yl)-5-cyclopropylisoxazole-3-carboxamide hydrochloride]
< 4.60: Homo sapiens, LS174T, LS-174T, Colon/GI, read-out: IC50 | Homo sapiens, LS-1034, LS1034, Colon/GI, read-out: IC50 | Homo sapiens, MC-IXC, CNS, read-out: IC50 | Homo sapiens, MCF7, MCF7, Breast, read-out: IC50 | Homo sapiens, MDA-MB-231, MDA MB 231, Breast, read-out: IC50 | Homo sapiens, MDA-MB-436, MDA-MB-436, Breast, read-out: IC50 | Homo sapiens, MDA-MB-453, MDA MB 453, Breast, read-out: IC50 | Homo sapiens, MDA-MB-468, MDA MB 468, Breast, read-out: IC50 | Homo sapiens, MEG-01, MEG01, Haematopoietic and lymphoid, read-out: IC50 | Homo sapiens, MES-SA, Soft Tissue, read-out: IC50 | Homo sapiens, MG-63, MG-63, Soft Tissue, read-out: IC50 | Homo sapiens, MHH-PREB-1, MHH-PREB-1, Haematopoietic and lymphoid, read-out: IC50 | Homo sapiens, MIA PaCa-2, Mia PaCa-2, Pancreas, read-out: IC50 | Homo sapiens, MOLT-3, MOLT-3, Haematopoietic and lymphoid, read-out: IC50 | Homo sapiens, MOLT-16, MOLT-16, Haematopoietic and lymphoid, read-out: IC50 | Homo sapiens, MV4-11, MV-4-11, Haematopoietic and lymphoid, read-out: IC50 | Homo sapiens, Malme-3M, MALME3M, Skin, read-out: IC50 | Homo sapiens, MeWo, Skin, read-out: IC50 | Homo sapiens, NALM-6, NALM-6, Haematopoietic and lymphoid, read-out: IC50 | Homo sapiens, NCI-H69, NCI-H69, Lung, read-out: IC50 | Homo sapiens, NCI-H292, NCI-H292, Lung, read-out: IC50 | Homo sapiens, NCI-H295R, Endocrine, read-out: IC50 | Homo sapiens, NCI-H441, NCIH441, Lung, read-out: IC50 | Homo sapiens, NCI-H446, NCIH446, Lung, read-out: IC50 | Homo sapiens, NCI-H460, NCI-H460, Lung, read-out: IC50 | Homo sapiens, NCI-H508, NCI-H508, Colon/GI, read-out: IC50 | Homo sapiens, NCI-H520, NCI-H520, Lung, read-out: IC50 | Homo sapiens, NCI-H596, NCI-H596, Lung, read-out: IC50 | Homo sapiens, NCI-H661, NCI-H661, Lung, read-out: IC50 | Homo sapiens, NCI-H747, NCI-H747, Colon/GI, read-out: IC50 | Homo sapiens, OE19, OE19, Head and Neck, read-out: IC50 | Homo sapiens, OE33, OE33, Head and Neck, read-out: IC50 | Homo sapiens, OVCAR-3, OVCAR3, Female GU, read-out: IC50 | Homo sapiens, PANC-1, PANC-1, Pancreas, read-out: IC50 | Homo sapiens, RKOE6, RKOE6, Colon/GI, read-out: IC50 | Homo sapiens, RL95-2, RL95-2, Female GU, read-out: IC50 | Homo sapiens, RPMI-6666, RPMI 6666, Haematopoietic and lymphoid, read-out: IC50 | Homo sapiens, RPMI-7951, RPMI-7951, Skin, read-out: IC50 | Homo sapiens, RPMI-8226, RPMI 8226, Haematopoietic and lymphoid, read-out: IC50 | Homo sapiens, Raji, Haematopoietic and lymphoid, read-out: IC50 | Homo sapiens, Ramos, Ramos (RA 1), Haematopoietic and lymphoid, read-out: IC50 | Homo sapiens, SAOS-2, SaOS2, Soft Tissue, read-out: IC50 | Homo sapiens, SCC-4, SCC-4, Head and Neck, read-out: IC50 | Homo sapiens, SCC-9, SCC-9, Head and Neck, read-out: IC50 | Homo sapiens, SCC-25, SCC-25, Head and Neck, read-out: IC50 | Homo sapiens, SCaBER, Bladder, read-out: IC50 | Homo sapiens, SHP77, SHP-77, Lung, read-out: IC50 | Homo sapiens, SJRH30, SJRH30, Soft Tissue, read-out: IC50 | Homo sapiens, SJSA-1, SJSA1, Soft Tissue, read-out: IC50 | Homo sapiens, SK-BR-3, SK-BR-3, Breast, read-out: IC50 | Homo sapiens, SK-LMS-1, SK-LMS-1, Soft Tissue, read-out: IC50 | Homo sapiens, SK-MEL3, SK-MEL-3, Skin, read-out: IC50 | Homo sapiens, SK-MEL-1, SK-MEL-1, Skin, read-out: IC50 | Homo sapiens, SK-MEL-28, SK-MEL-28, Skin, read-out: IC50 | Homo sapiens, SK-MES-1, SKMES1, Lung, read-out: IC50 | Homo sapiens, SK-N-AS, CNS, read-out: IC50 | Homo sapiens, SK-N-DZ, CNS, read-out: IC50 | Homo sapiens, SK-N-FI, CNS, read-out: IC50 | Homo sapiens, SK-NEP-1, SK-NEP-1, Kidney, read-out: IC50 | Homo sapiens, SK-OV-3, SKOV3, Female GU, read-out: IC50 | Homo sapiens, SK-UT-1, SK-UT-1, Soft Tissue, read-out: IC50 | Homo sapiens, SNB-19, SNB-19, CNS, read-out: IC50 | Homo sapiens, SNU1, SNU-1, Colon/GI, read-out: IC50 | Homo sapiens, SNU-5, SNU-5, Colon/GI, read-out: IC50 | Homo sapiens, SNU-16, SNU-16, Colon/GI, read-out: IC50 | Homo sapiens, SNU-423, SNU-423, Liver, read-out: IC50 | Homo sapiens, ST486, ST486, Haematopoietic and lymphoid, read-out: IC50 | Homo sapiens, SU.86.86, SU.86.86, Pancreas, read-out: IC50 | Homo sapiens, SW13, SW-13, Endocrine, read-out: IC50 | Homo sapiens, SW48, SW48, Colon/GI, read-out: IC50 | Homo sapiens, SW480, SW480, Colon/GI, read-out: IC50 | Homo sapiens, SW684, SW684, Soft Tissue, read-out: IC50 | Homo sapiens, SW837, SW837, Colon/GI, read-out: IC50 | Homo sapiens, SW872, SW872, Soft Tissue, read-out: IC50 | Homo sapiens, SW900, SW900, Lung, read-out: IC50 | Homo sapiens, SW948, SW948, Colon/GI, read-out: IC50 | Homo sapiens, SW 954, SW954, Female GU, read-out: IC50 | Homo sapiens, SW 962, SW962, Female GU, read-out: IC50 | Homo sapiens, SW982, SW982, Soft Tissue, read-out: IC50 | Homo sapiens, SW1088, SW1088, CNS, read-out: IC50 | Homo sapiens, SW1353, SW1353, Soft Tissue, read-out: IC50 | Homo sapiens, SW1417, SW1417, Colon/GI, read-out: IC50 | Homo sapiens, SW1463, SW1463, Colon/GI, read-out: IC50 | Homo sapiens, SW1783, SW1783, CNS, read-out: IC50 | Homo sapiens, SW-403, SW403, Colon/GI, read-out: IC50 | Homo sapiens, SW-620, SW620, Colon/GI, read-out: IC50 | Homo sapiens, SiHa, Female GU, read-out: IC50 | Homo sapiens, T47D, Breast, read-out: IC50 | Homo sapiens, T98G, CNS, read-out: IC50 | Homo sapiens, TCC-SUP, TCCSUP, Bladder, read-out: IC50 | Homo sapiens, THP-1, Thp1, Haematopoietic and lymphoid, read-out: IC50 | Homo sapiens, U2OS, Soft Tissue, read-out: IC50 | Homo sapiens, U138-MG, U-138MG, CNS, read-out: IC50 | Homo sapiens, U-87 MG, CNS, read-out: IC50 | Homo sapiens, UMUC3, UM-UC-3, Bladder, read-out: IC50 | Homo sapiens, WI-38, Wi38, Lung, read-out: IC50 | Homo sapiens, WiDr, Colon/GI, read-out: IC50 | Homo sapiens, YAPC, Pancreas, read-out: IC50 | Hs766T, Hs 766T, Pancreas, read-out: IC50 | J82, Bladder, read-out: IC50 | JAR, Female GU, read-out: IC50 | KHOS-240S, Soft Tissue, read-out: IC50 | KLE, Female GU, read-out: IC50 | KPL-1, KPL-1, Breast, read-out: IC50 | MT-3, Breast, read-out: IC50 | MX1, Haematopoietic and lymphoid, read-out: IC50 | OCUG-1, OCUG-1, Liver, read-out: IC50 | OE21, OE21, Head and Neck, read-out: IC50 | PC-3, Prostate, read-out: IC50 | RD, Soft Tissue, read-out: IC50 | RKO, Colon/GI, read-out: IC50 | RKOAS451, RKO-AS45-1, Colon/GI, read-out: IC50 | SH-4, Skin, read-out: IC50 | SKO-007, SKO-007, Haematopoietic and lymphoid, read-out: IC50 | SR, Haematopoietic and lymphoid, read-out: IC50 | SW579, SW579, Endocrine, read-out: IC50 | T24, Bladder, read-out: IC50 | TE 381.T, Soft Tissue, read-out: IC50 | U266B1, Haematopoietic and lymphoid, read-out: IC50 | Y79, Eye-retinoblastoma, read-out: IC50 | read-out: anti-proliferative IC50 across the panel of 240 cancer cell lines, 2D culture
